Source: article PMC12143348, “Rapid and reversible fluorescent probe enables repeated snapshot imaging of AMPA receptors during synaptic plasticity” (Science Advances, 2025)

How the values were obtained:
[1] = target: T1, GluK2(Q) (Rattus norvegicus, UniProt P42260); experiment: Confocal live imaging of HEK293T cells expressing GluK2(Q) treated with PFQX1(AF488); type: binding; conditions: even at high concentration (300 nM)
T1 construct: expressed in transfected cells; host or cells: HEK293T
Protocol: (§1) HEK293T cells were cotransfected with plasmids for AMPAR [5′UTR-GluA1^flip(R)-3′UTR, GluA2^flip(Q)-3′UTR, GluA3^flip(Q) (Y454A/R461G), and GluA4^flip(Q)], kainate receptor [GluK2(Q)], auxiliary subunits, or the control vector and transfection marker (EFGP-F or mCherry-F). Fluorophore-ligand conjugates were diluted in Hepes-buffered saline (HBS) buffer [20 mM Hepes (pH 7.4), 107 mM NaCl, 6 mM KCl, 1.2 mM MgSO4, 2 mM CaCl2, and 11.5 mM glucose] and added to the cells. Confocal live imaging was performed with LSM900 (Carl Zeiss) equipped with a 63×, numerical aperture (NA) = 1.4 oil-immersion objective. Fluorescence images were acquired by excitation at 405, 488, 561, or 640 nm derived from diode lasers.
Anti-HA mCherry-F Merge1.0
Fig. S8. Sub-micromolar concentrations of PFQX1(AF488) fail to visualize cell surface kainate receptors in HEK293T cells. (A) HA-tag staining of GluK2(Q).
GluK2(Q) expressing cells were treated with anti-HA antibody (Alexa Fluor 647 conjugate) for 15 min. Scale bar, 10 µm. (B) Fluorescence Ca2+ assay to analyze the inhibition of 100 µM kainic acid-induced response by PFQX-amine. HEK293T cells were transfected with GluK2(Q). The intensity was normalized to that at 0.1 µM PFQX-amine (n = 3). (C) Representative results of confocal live cell imaging of HEK293T cells expressing GluK2(Q) are shown. mCherry-F was used as a transfection marker. […]

[2] = target: T2, GluA2 (Mus musculus, UniProt P23819, DEL765-802); experiment: Kinetics and reversibility of PFQX1(AF488) binding in HEK293T cells expressing GluA2; conditions: 100 nM probe
T2 construct: expressed in transfected cells; host or cells: HEK293T
T2 sequence (P23819 with tags, fused parts or gaps isoform P23819-4 DEL765-802): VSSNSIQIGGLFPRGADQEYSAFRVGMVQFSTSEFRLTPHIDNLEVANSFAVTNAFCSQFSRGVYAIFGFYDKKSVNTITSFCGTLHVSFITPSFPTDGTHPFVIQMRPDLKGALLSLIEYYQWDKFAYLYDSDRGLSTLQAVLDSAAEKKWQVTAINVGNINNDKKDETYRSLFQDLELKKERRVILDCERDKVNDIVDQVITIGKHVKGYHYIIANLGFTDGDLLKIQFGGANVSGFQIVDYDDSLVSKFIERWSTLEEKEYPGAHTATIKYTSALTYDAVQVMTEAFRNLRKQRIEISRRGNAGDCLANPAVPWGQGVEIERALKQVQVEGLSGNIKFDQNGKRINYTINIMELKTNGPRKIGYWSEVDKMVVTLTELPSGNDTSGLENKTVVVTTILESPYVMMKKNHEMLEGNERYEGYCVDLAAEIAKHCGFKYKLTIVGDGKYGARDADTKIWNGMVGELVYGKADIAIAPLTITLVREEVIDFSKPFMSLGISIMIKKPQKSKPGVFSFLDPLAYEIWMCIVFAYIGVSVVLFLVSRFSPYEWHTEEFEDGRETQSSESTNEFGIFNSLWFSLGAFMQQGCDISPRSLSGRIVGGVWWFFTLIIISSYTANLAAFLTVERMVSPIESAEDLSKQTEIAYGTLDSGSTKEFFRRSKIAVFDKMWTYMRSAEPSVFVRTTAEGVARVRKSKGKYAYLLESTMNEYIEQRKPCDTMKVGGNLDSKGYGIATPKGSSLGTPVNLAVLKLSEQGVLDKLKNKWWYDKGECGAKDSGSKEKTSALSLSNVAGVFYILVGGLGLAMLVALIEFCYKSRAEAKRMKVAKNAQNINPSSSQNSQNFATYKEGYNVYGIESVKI
Protocol: HEK293T cells were transfected with Halo-tag-GluA2^flip(Q)-3′UTR. The cells were incubated with 500 nM Halo-Tag ligand-Alexa647 [HTL(AF647)] for 15 min at room temperature. AF647 was used as a transfection marker. The cells were washed three times with HBS, and a cloning ring (16 mm φ) was placed on the dish to accelerate the diffusion of the probe solution. After the dish was set on the stage, 100 nM PFQX1(AF488) was added to inside the cloning ring and imaged at specified time points by confocal microscopy.
For evaluating reversibility, 100 nM PFQX1(AF488) in HBS was added to the dish. The cells were observed by confocal microscopy as the first image. Then, the cells were washed three times with HBS and scanned as the wash image. After removal of the buffer, 100 nM PFQX1(AF488) was re-treated, and the cells were scanned as the second image. To quantify the fluorescence intensity of the membrane, the average signal intensity of regions of interest (ROIs) set on the membrane was calculated after subtracting background fluorescence by ZEN blue software.

[3] = Solubility of PFQX(Dye)s in HBS; type: physicochemical; conditions: aqueous buffer; dissolved in HBS
Protocol: aAffinity was evaluated in HEK293T cells expressing GluA2 flip(Q).
S3A. bPFQX(Dye)sweredissolved in HBS.
cAffinity to native AMPARs were evaluated usingprimary cultured hippocampal

[4] = target: T3, GluA2flip(R) (Mus musculus, UniProt P23819, DEL765-802/Q607R); experiment: Concentration-dependent binding of PFQX1(AF488) to GluA2flip(R) expressed alone in HEK293T cells; conditions: n = 3–4, read-out: Kd / Affinity of PFQX1(AF488) to GluA2flip(R) expressed alone (–)
T3 construct: expressed in transfected cells; host or cells: HEK293T
T3 sequence (P23819 with tags, fused parts or gaps isoform P23819-4 Q607R/DEL765-802): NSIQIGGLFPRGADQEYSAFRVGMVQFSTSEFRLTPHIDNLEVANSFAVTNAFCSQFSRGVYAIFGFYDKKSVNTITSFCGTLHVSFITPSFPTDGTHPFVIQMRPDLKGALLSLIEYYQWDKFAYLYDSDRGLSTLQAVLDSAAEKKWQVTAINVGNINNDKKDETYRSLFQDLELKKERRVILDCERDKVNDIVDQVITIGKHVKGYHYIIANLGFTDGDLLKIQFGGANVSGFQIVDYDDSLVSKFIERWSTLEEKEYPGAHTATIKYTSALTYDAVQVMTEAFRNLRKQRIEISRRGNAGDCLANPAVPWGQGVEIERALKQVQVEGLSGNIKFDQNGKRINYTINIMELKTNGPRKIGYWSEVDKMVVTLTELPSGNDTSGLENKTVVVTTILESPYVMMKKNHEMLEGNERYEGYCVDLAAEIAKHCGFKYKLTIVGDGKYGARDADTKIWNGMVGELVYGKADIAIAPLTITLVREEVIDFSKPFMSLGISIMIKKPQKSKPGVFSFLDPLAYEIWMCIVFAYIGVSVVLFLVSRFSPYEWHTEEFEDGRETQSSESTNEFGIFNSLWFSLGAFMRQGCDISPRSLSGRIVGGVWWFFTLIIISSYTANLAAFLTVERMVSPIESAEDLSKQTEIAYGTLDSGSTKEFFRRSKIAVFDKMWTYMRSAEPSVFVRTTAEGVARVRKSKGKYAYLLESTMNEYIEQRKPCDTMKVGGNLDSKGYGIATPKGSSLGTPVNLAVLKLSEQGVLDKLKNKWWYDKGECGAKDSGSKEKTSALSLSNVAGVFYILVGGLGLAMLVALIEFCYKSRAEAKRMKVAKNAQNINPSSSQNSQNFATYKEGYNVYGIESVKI
Protocol: as §1
For evaluating the concentration dependency of fluorophore-ligand conjugates, 0.1 nM probe in HBS was added to the dish. Then, probes in HBS were added stepwise to the dish to a final concentration of 0.3, 1, 3, 10, 30, 100, 300, 1000, and 3000 nM. Cell surface fluorescence intensity was quantified from the line scans of transfection marker positive cells and calculated with subtraction of background by ZEN blue software (Carl Zeiss). […]
(A) Concentration-dependent binding of PFQX1(AF488) to GluA2 flip(R) expressed with GSG1L or TARP γ7. […] (B) The surface intensity of PFQX1(AF488) was quantified. […]

T1 sequence (P42260 32-908): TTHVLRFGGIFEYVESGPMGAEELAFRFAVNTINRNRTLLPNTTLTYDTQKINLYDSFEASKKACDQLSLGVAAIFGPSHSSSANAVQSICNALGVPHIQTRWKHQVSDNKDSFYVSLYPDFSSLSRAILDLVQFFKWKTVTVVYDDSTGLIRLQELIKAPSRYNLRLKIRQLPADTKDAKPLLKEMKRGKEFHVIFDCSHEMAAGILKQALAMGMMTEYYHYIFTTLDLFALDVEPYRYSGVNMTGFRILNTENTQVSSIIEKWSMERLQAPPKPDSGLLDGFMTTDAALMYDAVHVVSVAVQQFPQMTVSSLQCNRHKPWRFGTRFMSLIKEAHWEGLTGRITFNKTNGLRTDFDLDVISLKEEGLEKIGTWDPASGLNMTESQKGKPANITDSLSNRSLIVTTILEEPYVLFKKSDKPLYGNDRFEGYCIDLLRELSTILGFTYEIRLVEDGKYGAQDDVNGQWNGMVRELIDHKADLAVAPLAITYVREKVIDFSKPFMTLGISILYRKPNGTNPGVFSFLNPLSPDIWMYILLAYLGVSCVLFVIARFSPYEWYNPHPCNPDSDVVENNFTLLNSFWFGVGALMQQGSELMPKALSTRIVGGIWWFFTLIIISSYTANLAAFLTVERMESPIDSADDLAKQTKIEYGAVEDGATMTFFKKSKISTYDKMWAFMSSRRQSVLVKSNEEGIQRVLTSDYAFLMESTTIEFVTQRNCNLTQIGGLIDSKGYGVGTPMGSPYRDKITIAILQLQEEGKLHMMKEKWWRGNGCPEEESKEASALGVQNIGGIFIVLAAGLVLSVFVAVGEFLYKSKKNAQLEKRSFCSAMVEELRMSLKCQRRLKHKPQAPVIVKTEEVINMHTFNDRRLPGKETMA

visualization of GluK2 [1]: failed to visualize GluK2 | time to saturation of cell-surface fluorescence after probe addition [2]: ≤ 20 s | solubility [3]: > 1470 µM | Kd [4]: 32.3 ± 4.7 nM
Structure (SMILES): N=c1ccc2c(-c3ccc(C(=O)NCc4ccn(-c5cc6c(cc5C(F)(F)F)[nH]c(=O)c(=O)n6CC(=O)O)c4)cc3C(=O)O)c3ccc(N)c(S(=O)(=O)O)c3oc-2c1S(=O)(=O)O [PFQX1(AF488)]
reversibility of binding (medium exchange) [2]: fluorescence from the cell surface was lost after the medium exchange
